Reference: PMC5414855 (Toxicological Sciences, 2017)

Legend:
[1] = test system: zebrafish AHR1A, AHR1B, and AHR2; experiment: Antisense morpholino knockdown, any of the morpholinos; type: in vivo
[2] = biological target: T1, AHR2 (Danio rerio, UniProt Q9YGV3); experiment: Antisense morpholino knockdown of AHR2 in Tg; type: in vivo, zebrafish; conditions: for expression in the skin and vasculature in AHR2 morphants: not shown
T1 sequence (Q9YGV3 1-1027): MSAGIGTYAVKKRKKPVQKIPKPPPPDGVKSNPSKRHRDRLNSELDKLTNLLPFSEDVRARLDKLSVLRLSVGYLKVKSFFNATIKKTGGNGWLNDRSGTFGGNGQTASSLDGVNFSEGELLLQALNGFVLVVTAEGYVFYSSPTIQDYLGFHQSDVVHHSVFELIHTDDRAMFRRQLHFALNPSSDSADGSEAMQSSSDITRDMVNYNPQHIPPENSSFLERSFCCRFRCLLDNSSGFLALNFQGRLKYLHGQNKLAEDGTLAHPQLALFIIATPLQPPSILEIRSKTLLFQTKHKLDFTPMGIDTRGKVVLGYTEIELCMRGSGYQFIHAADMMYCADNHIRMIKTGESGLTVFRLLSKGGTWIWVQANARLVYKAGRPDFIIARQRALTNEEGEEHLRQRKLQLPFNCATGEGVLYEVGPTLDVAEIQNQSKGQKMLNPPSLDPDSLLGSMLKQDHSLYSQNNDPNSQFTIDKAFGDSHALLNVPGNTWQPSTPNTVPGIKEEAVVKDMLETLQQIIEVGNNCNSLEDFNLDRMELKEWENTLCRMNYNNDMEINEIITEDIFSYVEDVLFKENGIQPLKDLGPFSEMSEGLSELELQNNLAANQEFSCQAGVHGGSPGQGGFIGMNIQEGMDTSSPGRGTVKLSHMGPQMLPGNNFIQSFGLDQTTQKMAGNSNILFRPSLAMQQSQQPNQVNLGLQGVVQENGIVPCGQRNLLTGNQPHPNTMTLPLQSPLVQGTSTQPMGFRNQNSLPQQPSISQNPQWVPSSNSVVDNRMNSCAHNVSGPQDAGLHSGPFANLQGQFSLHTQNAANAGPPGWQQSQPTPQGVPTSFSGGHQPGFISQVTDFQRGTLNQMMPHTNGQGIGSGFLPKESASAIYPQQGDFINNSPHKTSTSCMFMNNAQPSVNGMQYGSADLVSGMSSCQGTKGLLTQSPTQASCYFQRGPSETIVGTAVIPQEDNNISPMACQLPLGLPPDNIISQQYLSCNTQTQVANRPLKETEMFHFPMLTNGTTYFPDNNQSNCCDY

[3] = test system: AHR1A; experiment: Antisense morpholino knockdown of AHR1A in Tg; type: in vivo, zebrafish; conditions: for cyp1a/GFP expression in the livers in AHR1A morphants: single concentration
[4] = test system: 21 AHR-related, cardiac stress-related and oxidative stress gene transcripts
[5] = test system: cyp1a; conditions: transgenic Japanese Medaka; ref Ng and Gong, 2013; cited from earlier work
[6] = test system: zebrafish embryos; conditions: zebrafish embryos exposed 6 to 120 hpf; beyond the range of concentrations tested and beyond the range of accuracy of the EC50 model
[7] = test system: zebrafish embryos; experiment: animal or person; conditions: Danio rerio, read-out: EC50, calculated value beyond the range of concentrations tested, zebrafish embryos exposed 6 to 120 hpf; beyond the range of concentrations tested and beyond the range of accuracy of the EC50 model
[8] = test system: cyp1a/GFP; conditions: ref Goodale et al., 2015; cited from earlier work
[9] = test system: arg2; conditions: 48 hpf embryos; dependent on AHR2; ref Goodale et al., 2015; cited from earlier work

## O=[N+]([O-])c1ccc2c3c(cccc13)-c1ccccc1-2 [3-nitrofluoranthene]
[1]
  cyp1a/GFP expression in the yolk after injection with any of the morpholinos: did not appear to decrease

## O=[N+]([O-])c1c2c(cc3ccccc13)-c1ccc([N+](=O)[O-])c3cccc-2c13 [3,7-dinitrobenzo[k]fluoranthene]
[2]
  cyp1a/GFP expression in the vasculature and/or skin (and neuromasts, for 7-nitrobenzo[k]fluoranthene) following knockdown of AHR2: near-complete inhibition
  expression in the skin and vasculature in AHR2 morphants: reduced

## O=[N+]([O-])c1ccc2c3c(cccc13)CC2 [5-nitroacenaphthalene]
[3]
  observed developmental toxicity in AHR1A morphants: did not result in a substantial decrease
  cyp1a/GFP expression in the livers in AHR1A morphants: eliminated
[4]; 120 hpf
  expression of arg2: significantly increased expression

## Clc1cc2c(cc1Cl)Oc1cc(Cl)c(Cl)cc1O2 [TCDD]
[5]
  expression of cyp1a in the neuromasts: observed previously

## O=[N+]([O-])c1c2c(cc3ccccc13)-c1cccc3cccc-2c13 [7-nitrobenzo[k]fluoranthene]
[3]
  cyp1a/GFP expression in the livers in AHR1A morphants: eliminated
[4]; 50 µM, at 120 hpf, vs DMSO control
  expression of cyp1a, cyp1b1, and cyp1c1: Significantly increased expression
[4]; 120 hpf
  expression of arg2: significantly increased expression
[2]
  cyp1a/GFP expression in the vasculature and/or skin (and neuromasts, for 7-nitrobenzo[k]fluoranthene) following knockdown of AHR2: near-complete inhibition
[2]; at both 48 and 120 hpf
  GFP expression in AHR2 morphants, skin and neuromasts: Decreased GFP expression

## c1ccc2c(c1)oc1ccccc12 [Dibenzofuran]
[6]
  EC50, calculated value beyond the range of concentrations tested: beyond the tested range of concentrations
[7]
  EC50: 228 µM

## O=[N+]([O-])c1ccc2ccc3c([N+](=O)[O-])ccc4ccc1c2c43 [1,6-dinitropyrene]
[4]; 5 µM, at 48 and 120 hpf, vs DMSO control
  expression of cyp1a, cyp1b1, cyp1c1, and cyp1c2: Significantly increased expression
[4]; 48 hpf, compared to the DMSO exposed controls
  expression of cyp1a1, increase: 1,963 fold
[4]; 120 hpf
  expression of arg2: significantly increased expression
[2]
  cyp1a/GFP expression in the vasculature and/or skin (and neuromasts, for 7-nitrobenzo[k]fluoranthene) following knockdown of AHR2: near-complete inhibition
  toxicity in AHR2 morphants: Decreased toxicity
  expression in the skin and vasculature in AHR2 morphants: reduced

## O=[N+]([O-])c1ccc2cc3ccccc3cc2c1 [2-nitroanthracene]
[6]
  EC50, calculated value beyond the range of concentrations tested: beyond the tested range of concentrations

## O=[N+]([O-])c1cc([N+](=O)[O-])c2ccc3cccc4ccc1c2c43 [1,3-dinitropyrene]
[1]
  cyp1a/GFP expression in the yolk after injection with any of the morpholinos: did not appear to decrease
[4]; 3.56 µM, 120 hpf
  expression of nppb, increase: 23 fold
[4]; 48 hpf
  expression of myl7, significant increase: 2 fold
[4]; 48 hpf, suite of 21 genes
  number of differentially expressed genes: 4

## O=[N+]([O-])c1cc2ccccc2c2ccccc12 [9-nitrophenanthrene]
[3]
  cyp1a/GFP expression in the livers in AHR1A morphants: eliminated

## O=C1c2ccccc2-c2cccc3cccc1c23 [1,9-benz-10-anthrone]
[8]
  cyp1a/GFP expression in the syncytial layer of the yolk: previously observed
[9]
  arg2 expression: significantly elevated

## O=[N+]([O-])c1c2ccccc2cc2c1ccc1ccccc12 [7-nitrobenz[a]anthracene]
[6]
  EC50, calculated value beyond the range of concentrations tested: beyond the tested range of concentrations
[7]
  EC50: 238 µM
[2]
  cyp1a/GFP expression in the vasculature and/or skin (and neuromasts, for 7-nitrobenzo[k]fluoranthene) following knockdown of AHR2: near-complete inhibition
[2]; at both 48 and 120 hpf
  GFP expression in AHR2 morphants, vasculature: Decreased GFP expression
